# Key:
# [1] = […] of autophagy in human H4 cells assessed as decrease in LC3B spot area by immunofluorescence assay; format: functional, cell-based
# [2] = target: T1, Ubiquitin-like modifier-activating enzyme ATG7 (Homo sapiens, UniProt O95352); experiment: Inhibition of recombinant His-tagged human ATG7 incubated for 105 mins in presence of GST-tagged ATG3 and Flag-tagged Gabarap and measured after 2 hrs by FRET assay relative to control
# T1 sequence (O95352 whole entry): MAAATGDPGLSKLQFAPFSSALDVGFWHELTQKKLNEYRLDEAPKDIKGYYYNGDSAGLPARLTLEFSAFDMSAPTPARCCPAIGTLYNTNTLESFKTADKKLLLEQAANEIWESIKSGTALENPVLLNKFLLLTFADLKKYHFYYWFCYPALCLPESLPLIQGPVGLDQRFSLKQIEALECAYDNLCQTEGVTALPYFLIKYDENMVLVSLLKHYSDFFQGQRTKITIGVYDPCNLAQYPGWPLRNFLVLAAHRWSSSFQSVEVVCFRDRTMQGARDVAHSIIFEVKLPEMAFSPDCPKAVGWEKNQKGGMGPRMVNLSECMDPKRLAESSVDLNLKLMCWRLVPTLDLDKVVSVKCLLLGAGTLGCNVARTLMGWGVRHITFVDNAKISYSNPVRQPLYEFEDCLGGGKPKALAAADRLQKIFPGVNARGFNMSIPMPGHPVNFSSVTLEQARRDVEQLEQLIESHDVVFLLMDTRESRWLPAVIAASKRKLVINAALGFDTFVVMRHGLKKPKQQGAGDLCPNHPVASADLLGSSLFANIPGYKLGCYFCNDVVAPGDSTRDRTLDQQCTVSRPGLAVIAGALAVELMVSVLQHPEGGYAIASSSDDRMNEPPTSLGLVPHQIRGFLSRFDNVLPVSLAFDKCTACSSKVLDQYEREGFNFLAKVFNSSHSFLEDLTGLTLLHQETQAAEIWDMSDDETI
# NCI-H1650 = experiment: Antiproliferative activity against human H1650 cells assessed as reduction in cell viability after 72 hrs by cell titer glow assay; format: cell-based; conditions: NCI-H1650, 72 h
# [3] = target: T1, Ubiquitin-like modifier-activating enzyme ATG7; experiment: Inhibition of ATG7 in human 293HEK cells assessed as inhibition of ATG7:ATG8 thioester formation after 8 hrs by Western blot analysis; format: cell-based, HEK293
# [4] = target: T1, Ubiquitin-like modifier-activating enzyme ATG7; experiment: Inhibition of ATG7 in human 293HEK cells assessed as inhibition of ATG7:ATG8 thioester formation after 4 hrs by Western blot analysis; format: cell-based, HEK293
# [5] = Inhibition of SAE (unknown origin)
# [6] = Inhibition of NAE (unknown origin)
# SK-OV-3 [7] = experiment: […] of autophagy in human SKOV3 cells assessed as accumulation of p62 by immunofluorescence assay; format: functional, cell-based
# SK-OV-3 [8] = experiment: […] of autophagy in human SKOV3 cells assessed as accumulation of NRB1 by immunofluorescence assay; format: functional, cell-based
# [9] = Inhibition of UAE (unknown origin)
SMILES,IC50 [1],IC50 [2],EC50 (NCI-H1650),IC50 [3],IC50 [4],IC50 [6],EC50 (SK-OV-3 [7]),EC50 (SK-OV-3 [8]),IC50 [9],IC50 [5]
Nc1ncnc2c1c(Sc1cccc(Cl)c1)nn2[C@H]1C[C@H](O)[C@H](COS(N)(=O)=O)O1,1370 nM,190 nM,> 50000 nM,,,,,,,
Nc1ncnc2c1c(OC(F)F)nn2[C@H]1C[C@H](O)[C@@H](COS(N)(=O)=O)O1,1770 nM,100 nM,> 50000 nM,545 nM,,,,,,
COc1nn([C@H]2C[C@H](O)[C@@H](COS(N)(=O)=O)O2)c2ncnc(N)c12,,249 nM,31500 nM,,,,,,,
Cc1cccc(Sc2nn([C@@H]3O[C@H](COS(N)(=O)=O)[C@@H](O)[C@@H]3F)c3ncnc(N)c23)c1,483 nM,,49100 nM,51 nM,140 nM,,,,,
CC(C)Sc1nn([C@H]2C[C@H](O)[C@@H](COS(N)(=O)=O)O2)c2ncnc(N)c12,1090 nM,27 nM,> 50000 nM,150 nM,438 nM,,,,,
CSc1nn([C@H]2C[C@H](O)[C@@H](COS(N)(=O)=O)O2)c2ncnc(N)c12,938 nM,48 nM,10400 nM,86 nM,280 nM,> 1000 nM,3000 nM,> 20000 nM,> 1000 nM,> 1000 nM
CC(C)Sc1nn([C@H]2C[C@H](O)[C@H](COS(N)(=O)=O)O2)c2ncnc(N)c12,1920 nM,57 nM,> 50000 nM,,468 nM,,,,,
CCSc1nn([C@H]2C[C@H](O)[C@@H](COS(N)(=O)=O)O2)c2ncnc(N)c12,1360 nM,52 nM,> 50000 nM,,367 nM,> 1000 nM,2300 nM,> 20000 nM,> 1000 nM,> 1000 nM
Nc1ncnc2c1c(Sc1cccc(Cl)c1)nn2[C@H]1C[C@H](O)[C@@H](COS(N)(=O)=O)O1,1150 nM,104 nM,> 50000 nM,,499 nM,,,,,
Nc1ncnc2c1c(Sc1ccc3c(c1)CCC3)nn2[C@H]1C[C@H](O)[C@@H](COS(N)(=O)=O)O1,710 nM,66 nM,> 50000 nM,,,,,,,
CSc1nn([C@H]2C[C@H](O)[C@H](COS(N)(=O)=O)O2)c2ncnc(N)c12,1260 nM,124 nM,> 50000 nM,,,,,,,
Cc1cccc(Sc2nn([C@H]3C[C@H](O)[C@@H](COS(N)(=O)=O)O3)c3ncnc(N)c23)c1,1260 nM,95 nM,> 50000 nM,,422 nM,,,,,
Nc1ncnc2c1c(Sc1cccc(Cl)c1)nn2[C@@H]1O[C@H](COS(N)(=O)=O)[C@@H](O)[C@@H]1F,534 nM,31 nM,39700 nM,56 nM,198 nM,,,,,
Nc1ncnc2c1c(Sc1ccc3c(c1)CCC3)nn2[C@H]1C[C@H](O)[C@H](COS(N)(=O)=O)O1,996 nM,156 nM,> 50000 nM,,,,,,,
Cc1ccc(Sc2nn([C@H]3C[C@H](O)[C@@H](COS(N)(=O)=O)O3)c3ncnc(N)c23)c(F)c1,533 nM,80 nM,> 50000 nM,,,,,,,
Cc1ccc(Sc2nn([C@H]3C[C@H](O)[C@H](COS(N)(=O)=O)O3)c3ncnc(N)c23)c(F)c1,659 nM,62 nM,> 50000 nM,,,> 1000 nM,3000 nM,9400 nM,> 1000 nM,> 1000 nM

# Second part, led by results:
IC50 [1],IC50 [2],EC50 (NCI-H1650),IC50 [3],IC50 [4],IC50 [6],EC50 (SK-OV-3 [7]),EC50 (SK-OV-3 [8]),IC50 [9],SMILES,IC50 [5]
2530 nM,145 nM,> 50000 nM,,,,,,,CSc1nn([C@@H]2O[C@@H](COS(N)(=O)=O)[C@@H](O)[C@@H]2F)c2ncnc(N)c12,
727 nM,20 nM,22400 nM,56 nM,199 nM,,,,,CC(C)Sc1nn([C@@H]2O[C@H](COS(N)(=O)=O)[C@@H](O)[C@@H]2F)c2ncnc(N)c12,
977 nM,41 nM,5790 nM,47 nM,,,,,,CSc1nn([C@@H]2O[C@H](COS(N)(=O)=O)[C@@H](O)[C@@H]2F)c2ncnc(N)c12,
,264 nM,> 50000 nM,1280 nM,,,,,,Nc1ncnc2c1c(OCc1ccccc1)nn2[C@@H]1O[C@H](COS(N)(=O)=O)[C@@H](O)[C@H]1O,
,2600 nM,> 50000 nM,,,,,,,CC(C)Oc1nn([C@@H]2O[C@H](COS(N)(=O)=O)[C@@H](O)[C@H]2O)c2ncnc(N)c12,
,16 nM,> 50000 nM,,1280 nM,,,,,Nc1ncnc2c1c(Sc1cn[nH]c1)nn2[C@@H]1O[C@H](COS(N)(=O)=O)[C@@H](O)[C@H]1O,
,23 nM,> 50000 nM,322 nM,604 nM,,,,,Nc1ncnc2c1c(SCc1ccccc1)nn2[C@@H]1O[C@H](COS(N)(=O)=O)[C@@H](O)[C@H]1O,
2300 nM,29 nM,10000 nM,162 nM,479 nM,,,,,Nc1ncnc2c1c(OC(F)F)nn2[C@@H]1O[C@H](COS(N)(=O)=O)[C@@H](O)[C@H]1O,
,18 nM,> 50000 nM,178 nM,,,,,,Cc1cccc(Sc2nn([C@@H]3O[C@H](COS(N)(=O)=O)[C@@H](O)[C@H]3O)c3ncnc(N)c23)c1,
,43 nM,18300 nM,,453 nM,,,,,Nc1ncnc2c1c(OC(F)F)nn2[C@@H]1O[C@H](COS(N)(=O)=O)[C@@H](O)[C@@H]1F,
4230 nM,17 nM,> 50000 nM,284 nM,1250 nM,,,,,CC(C)Sc1nn([C@@H]2O[C@H](COS(N)(=O)=O)[C@@H](O)[C@H]2O)c2ncnc(N)c12,
2600 nM,89 nM,5940 nM,335 nM,,> 1000 nM,,,> 1000 nM,COc1nn([C@@H]2O[C@H](COS(N)(=O)=O)[C@@H](O)[C@H]2O)c2ncnc(N)c12,> 50000 nM
,457 nM,75 nM,,,,,,,Nc1ncnc2c1cnn2[C@@H]1O[C@H](COS(N)(=O)=O)[C@@H](O)[C@H]1O,
,177 nM,33900 nM,317 nM,,,,,,COc1nn([C@@H]2O[C@H](COS(N)(=O)=O)[C@@H](O)[C@@H]2F)c2ncnc(N)c12,
,351 nM,> 50000 nM,,,,,,,Nc1ncnc2c1c(CCc1ccccc1)nn2[C@@H]1O[C@H](COS(N)(=O)=O)[C@@H](O)[C@H]1O,
1500 nM,14 nM,1540 nM,83 nM,431 nM,,,,,CSc1nn([C@@H]2O[C@H](COS(N)(=O)=O)[C@@H](O)[C@H]2O)c2ncnc(N)c12,
,29 nM,> 50000 nM,201 nM,,,,,,Nc1ncnc2c1c(Sc1ccccc1)nn2[C@@H]1O[C@H](COS(N)(=O)=O)[C@@H](O)[C@H]1O,
6000 nM,325 nM,> 50000 nM,,1280 nM,,,,,CSc1nn([C@@H]2O[C@@H](COS(N)(=O)=O)[C@@H](O)[C@H]2O)c2ncnc(N)c12,
20100 nM,129 nM,> 50000 nM,882 nM,882 nM,,,,,CC(C)Sc1nn([C@@H]2O[C@@H](COS(N)(=O)=O)[C@@H](O)[C@H]2O)c2ncnc(N)c12,
,255 nM,49400 nM,,,,,,,CCOc1nn([C@@H]2O[C@H](COS(N)(=O)=O)[C@@H](O)[C@H]2O)c2ncnc(N)c12,
,22 nM,15400 nM,160 nM,,,,,,CCSc1nn([C@@H]2O[C@H](COS(N)(=O)=O)[C@@H](O)[C@H]2O)c2ncnc(N)c12,
,84 nM,> 50000 nM,,,,,,,Nc1ncnc2c1c(O)nn2[C@@H]1O[C@H](COS(N)(=O)=O)[C@@H](O)[C@H]1O,

# — ChEMBL document CHEMBL4725396, “Discovery and optimization of pyrazolopyrimidine sulfamates as ATG7 inhibitors” (Bioorg Med Chem, 2020)
